Experimental data reported in US6800674B2, “Anthraquinone compound and water-based ink-jet recording ink containing the compound” (Mitsui Chemicals, Inc., priority 2000, dated 2004).

Experiment: Evaluation of water resistance (OD1 after/before dipping in water)
Format: physicochemical
Details: aqueous ink, ink production process Example 1; OD1 after dipping in water and air-drying
Experimental: (§1) Glycerin and water were added to the dispersion (A) of colored resin fine particles to obtain aqueous ink having a solid content of 15% by weight. This aqueous ink was used, and filled in an ink cartridge for a piezo-type ink jet printer, and printing and image recording were conducted with the same printer. The test was conducted on the following items.
(D) Evaluation of Water Resistance
With respect to a printed portion of a plain paper having a recorded image thereon for test, printing density (OD value) was measured with a reflection densitometer before dipping in water and after dipping in water and air-drying. Water resistance was evaluated upon comparing OD1.
OD1=(OD value after dipping in water and air-drying)/(OD value before dipping in water)×100[%]

SMILES | D (Evaluation of water resistance)
CCCCC(CC)C(=O)Nc1cccc(Oc2cc(O)c3c(c2N)C(=O)c2ccccc2C3=O)c1 (stereo not shown) [compound 34] | ◯ (OD value is 70 to less than 80%.)
CCCCCCCCCCCCCCCCCCOC(=O)CSc1cc(O)c2c(c1N)C(=O)c1ccccc1C2=O [compound 27] | ◯ (OD value is 70 to less than 80%.)
CCCCOC(=O)CSc1cc(O)c2c(c1N)C(=O)c1ccccc1C2=O [compound 32] | ◯ (OD value is 70 to less than 80%.)
Cc1ccc(CCCOc2cc(O)c3c(c2N)C(=O)c2ccccc2C3=O)cc1 [compound 25] | ◯ (OD value is 70 to less than 80%.)
Nc1c(Oc2ccccc2NC(=O)c2ccccc2)cc(O)c2c1C(=O)c1ccccc1C2=O [compound 35] | ◯ (OD value is 70 to less than 80%.)
Cc1cccc(Oc2cc(O)c3c(c2N)C(=O)c2ccccc2C3=O)c1 [compound 24] | ◯ (OD value is 70 to less than 80%.)
CCCCC(CC)COC(=O)CCSc1cc(O)c2c(c1N)C(=O)c1ccccc1C2=O (stereo not shown) [compound 29] | ◯ (OD value is 70 to less than 80%.)
Nc1ccccc1Sc1cc(O)c2c(c1N)C(=O)c1ccccc1C2=O [compound 22] | ◯ (OD value is 70 to less than 80%.)
CCCCCCCCN(CCCCCCCC)c1cccc(Oc2cc(O)c3c(c2N)C(=O)c2ccccc2C3=O)c1 [Coloring matter No. 1] | ⊚⊚ (OD value is 90 to 100%.)
CCCCC(CC)COC(=O)CSc1cc(O)c2c(c1N)C(=O)c1ccccc1C2=O (stereo not shown) [compound 30] | ◯ (OD value is 70 to less than 80%.)
CCCCC(CC)COC(=O)CSc1cccc(Oc2cc(O)c3c(c2N)C(=O)c2ccccc2C3=O)c1 (stereo not shown) [compound 26] | ◯ (OD value is 70 to less than 80%.)
CCCCC(CC)COC(=O)CSc1ccccc1Oc1cc(O)c2c(c1N)C(=O)c1ccccc1C2=O (stereo not shown) [compound 28] | ◯ (OD value is 70 to less than 80%.)
CCCCN(CCCC)c1cccc(CCOc2cc(O)c3c(c2N)C(=O)c2ccccc2C3=O)c1 [compound 36] | ◯ (OD value is 70 to less than 80%.)
Nc1c(Oc2ccccc2)cc(O)c2c1C(=O)c1ccccc1C2=O [compound 23] | ◯ (OD value is 70 to less than 80%.)
CCCCCCCCCc1ccc(Oc2cc(O)c3c(c2N)C(=O)c2ccccc2C3=O)cc1 [compound 38] | ◯ (OD value is 70 to less than 80%.)
CCCCC(CC)COC(=O)CSc1ccc(Oc2cc(O)c3c(c2N)C(=O)c2ccccc2C3=O)cc1 (stereo not shown) [compound 40] | ◯ (OD value is 70 to less than 80%.)
CCCCCCCCSc1cc(O)c2c(c1N)C(=O)c1ccccc1C2=O [compound 21] | ◯ (OD value is 70 to less than 80%.)

Experiment: Evaluation of light fastness (xenon fadeometer, OD2)
Format: physicochemical
Details: aqueous ink, ink production process Example 1; OD2 after 100 hours of irradiation
Experimental: as §1
(E) Evaluation of Light Fastness
Printing density (OD value) was measured using a xenon fadeometer (manufactured by Suga Shikenki) before irradiation and after 100 hours of irradiation. Light fastness was evaluated upon comparing OD2.
OD2=(OD value after irradiation)/(OD value before irradiation)×100[%]

SMILES | E (Evaluation of light fastness)
CCCCC(CC)C(=O)Nc1cccc(Oc2cc(O)c3c(c2N)C(=O)c2ccccc2C3=O)c1 (stereo not shown) [compound 34] | ◯ (OD value is 70 to less than 80%.)
CCCCCCCCCCCCCCCCCCOC(=O)CSc1cc(O)c2c(c1N)C(=O)c1ccccc1C2=O [compound 27] | Δ (OD value is 50 to less than 70%.)
CCCCOC(=O)CSc1cc(O)c2c(c1N)C(=O)c1ccccc1C2=O [compound 32] | Δ (OD value is 50 to less than 70%.)
Cc1ccc(CCCOc2cc(O)c3c(c2N)C(=O)c2ccccc2C3=O)cc1 [compound 25] | ◯ (OD value is 70 to less than 80%.)
Nc1c(Oc2ccccc2NC(=O)c2ccccc2)cc(O)c2c1C(=O)c1ccccc1C2=O [compound 35] | ◯ (OD value is 70 to less than 80%.)
Cc1cccc(Oc2cc(O)c3c(c2N)C(=O)c2ccccc2C3=O)c1 [compound 24] | ◯ (OD value is 70 to less than 80%.)
CCCCC(CC)COC(=O)CCSc1cc(O)c2c(c1N)C(=O)c1ccccc1C2=O (stereo not shown) [compound 29] | Δ (OD value is 50 to less than 70%.)
Nc1ccccc1Sc1cc(O)c2c(c1N)C(=O)c1ccccc1C2=O [compound 22] | Δ (OD value is 50 to less than 70%.)
CCCCCCCCN(CCCCCCCC)c1cccc(Oc2cc(O)c3c(c2N)C(=O)c2ccccc2C3=O)c1 [Coloring matter No. 1] | ⊚⊚ (OD value is 90 to 100%.)
CCCCC(CC)COC(=O)CSc1cc(O)c2c(c1N)C(=O)c1ccccc1C2=O (stereo not shown) [compound 30] | Δ (OD value is 50 to less than 70%.)
CCCCC(CC)COC(=O)CSc1cccc(Oc2cc(O)c3c(c2N)C(=O)c2ccccc2C3=O)c1 (stereo not shown) [compound 26] | ◯ (OD value is 70 to less than 80%.)
CCCCC(CC)COC(=O)CSc1ccccc1Oc1cc(O)c2c(c1N)C(=O)c1ccccc1C2=O (stereo not shown) [compound 28] | ◯ (OD value is 70 to less than 80%.)
CCCCN(CCCC)c1cccc(CCOc2cc(O)c3c(c2N)C(=O)c2ccccc2C3=O)c1 [compound 36] | ◯ (OD value is 70 to less than 80%.)
Nc1c(Oc2ccccc2)cc(O)c2c1C(=O)c1ccccc1C2=O [compound 23] | Δ (OD value is 50 to less than 70%.)
CCCCCCCCCc1ccc(Oc2cc(O)c3c(c2N)C(=O)c2ccccc2C3=O)cc1 [compound 38] | ◯ (OD value is 70 to less than 80%.)
CCCCC(CC)COC(=O)CSc1ccc(Oc2cc(O)c3c(c2N)C(=O)c2ccccc2C3=O)cc1 (stereo not shown) [compound 40] | ◯ (OD value is 70 to less than 80%.)
CCCCCCCCSc1cc(O)c2c(c1N)C(=O)c1ccccc1C2=O [compound 21] | Δ (OD value is 50 to less than 70%.)
